# According to patent US9060515B2, “Heterocyclic urea compounds” (BIOTA EUROPE LTD, priority 2011, dated 2015):
# Tests used:
# S. pyogenes (ATCC 51339) = experiment: Antibacterial susceptibility testing (MIC, broth microdilution or agar dilution), S. pyogenes; format: cell-based; conditions: Streptococcus pyogenes, ATCC51339; read-out: S. pyogenes (ATCC 51339) minimal inhibitory concentration (MIC)
# Procedure: (§1) Compounds of the invention were tested for antimicrobial activity by susceptibility testing in liquid or on solid media. MICs for compounds against each strain were determined by the broth microdilution or agar dilution method according to the guidelines of the Clinical Laboratories and Standards Institute, formerly the National Committee for Clinical Laboratory Standards (Clinical Laboratories and Standards Institute. Methods for Dilution Antimicrobial Susceptibility Tests for Bacteria That Grow Aerobically; Approved Standard—Seventh Edition. Document M7-A7. CLSI, Wayne, Pa., 2006; Clinical Laboratories and Standards Institute. The Gram positive bacterial strains tested include S. aureus (Staphylococcus aureus (Isolate ID ATCC 29213)), E. faecalis (Enterococcus faecalis (Isolate ID ATCC 29212)) and S. pyogenes (Streptococcus pyogenes (Isolate ID ATCC 51339)). The Gram negative bacterial strains tested include H. influenzae (Haemophilus influenzae (Isolate ID ATCC 49247)).
# S. aureus (ATCC 29213) = experiment: Antibacterial susceptibility testing (MIC, broth microdilution or agar dilution), S. aureus; format: cell-based; conditions: Staphylococcus aureus, ATCC29213; read-out: S. aureus (ATCC 29213) minimal inhibitory concentration (MIC)
# Procedure: as §1
SMILES,MIC (S. pyogenes (ATCC 51339)),MIC (S. aureus (ATCC 29213))
"CCNC(=O)Nc1cc(Nc2ccccc2)c(C(=O)Nc2ccc(C)cc2)cn1 [Compound 46, 6-(3-ethylureido)-4-(phenylamino)-N-p-tolylnicotinamide]",4 µg/mL,2 µg/mL
"CCNC(=O)Nc1cc(Nc2ccccc2)c(C(=O)Nc2ccc(C(F)(F)F)cc2)cn1 [Compound 47, 6-(3-ethylureido)-4-(phenylamino)-N-(4-(trifluoromethyl)phenyl)nicotinamide]",32 µg/mL,4 µg/mL
"CCNC(=O)Nc1cc(Nc2ccccc2)c(C(=O)Nc2cccc(C(F)(F)F)c2)cn1 [Compound 48, 6-(3-ethylureido)-4-(phenylamino)-N-(3-(trifluoromethyl)phenyl)nicotinamide]",8 µg/mL,≤ 1 µg/mL
"CCNC(=O)Nc1cc(Nc2ccccc2)c(C(=O)NCc2ccncc2)cn1 [Compound 51, 6-(3-ethylureido)-4-(phenylamino)-N-(pyridin-4-ylmethyl)nicotinamide]",2 µg/mL,32 µg/mL
"CCNC(=O)Nc1cc(Nc2ccccc2)c(C(=O)NCc2ccccn2)cn1 [Compound 52, 6-(3-ethylureido)-4-(phenylamino)-N-(pyridin-2-ylmethyl)nicotinamide]",8 µg/mL,32 µg/mL
"CCNC(=O)Nc1cc(Nc2ccccc2)c(C(=O)Nc2ccc(F)cc2)cn1 [Compound 55, 6-(3-ethylureido)-N-(4-fluorophenyl)-4-(phenylamino)nicotinamide]",4 µg/mL,≤ 1 µg/mL
"CCNC(=O)Nc1cc(Nc2ccccc2)c(C(=O)Nc2cccc(F)c2)cn1 [Compound 56, 6-(3-ethylureido)-N-(3-fluorophenyl)-4-(phenylamino)nicotinamide]",2 µg/mL,≤ 1 µg/mL
"CCNC(=O)Nc1cc(Nc2ccccc2)c(C(=O)Nc2ccn(C)n2)cn1 [Compound 59, 6-(3-ethylureido)-N-(1-methyl-1H-pyrazol-3-yl)-4-(phenylamino)nicotinamide]",2 µg/mL,8 µg/mL
"CCNC(=O)Nc1cc(Nc2ccccc2)c(C(=O)Nc2cncnc2)cn1 [Compound 60, 6-(3-ethylureido)-4-(phenylamino)-N-(pyrimidin-5-yl)nicotinamide]",≤ 1 µg/mL,4 µg/mL
"CCNC(=O)Nc1cc(Nc2ccccc2)c(C(N)=O)cn1 [Compound 61, 6-(3-Ethylureido)-4-(phenylamino)nicotinamide]",16 µg/mL,32 µg/mL
"CCNC(=O)Nc1cc(Nc2ccccc2)c(C(=O)Nc2ccc(OC)nc2)cn1 [Compound 63, 6-(3-ethylureido)-N-(6-methoxypyridin-3-yl)-4-(phenylamino)nicotinamide]",≤ 1 µg/mL,≤ 1 µg/mL
"CCNC(=O)Nc1cc(Nc2ccccc2)c(C(=O)Nc2cnn(C)c2)cn1 [Compound 65, 6-(3-ethylureido)-N-(1-methyl-1H-pyrazol-4-yl)-4-(phenylamino)nicotinamide]",≤ 1 µg/mL,2 µg/mL
"CCNC(=O)Nc1cc(Nc2ccccc2)c(C(=O)Nc2cc(F)cc(F)c2)cn1 [Compound 66, N-(3,5-difluorophenyl)-6-(3-ethylureido)-4-(phenylamino)nicotinamide]",4 µg/mL,≤ 1 µg/mL
"CCNC(=O)Nc1cc(Nc2ccccc2)c(C(=O)Nc2ccc(F)c(F)c2)cn1 [Compound 69, N-(3,4-difluorophenyl)-6-(3-ethylureido)-4-(phenylamino)nicotinamide]",4 µg/mL,≤ 1 µg/mL
"CCNC(=O)Nc1cc(Nc2ccccc2)c(C(=O)Nc2ccc3nccn3c2)cn1 [Compound 76, 6-(3-ethylureido)-N-(imidazo[1,2-a]pyridin-6-yl)-4-(phenylamino)nicotinamide]",≤ 1 µg/mL,2 µg/mL
"CCNC(=O)Nc1cc(Nc2ccccc2)c(C(=O)Nc2cncc(OC)c2)cn1 [Compound 79, 6-(3-ethylureido)-N-(5-methoxypyridin-3-yl)-4-(phenylamino)nicotinamide]",≤ 1 µg/mL,≤ 1 µg/mL
